Source: ChEMBL document CHEMBL5512664, “Emerging and Re-emerging Warheads for Targeted Covalent Inhibitors: An Update” (J Med Chem, 2024)

Experiments:
Carbonic anhydrase 2 [1] = biological target: T1, Carbonic anhydrase 2 (Homo sapiens, UniProt P00918); assay: Rate of protein modification at carbonic anhydrase II (unknown origin) fragment assessed as inhibition constant
Carbonic anhydrase 2 [2] = biological target: T1, Carbonic anhydrase 2; assay: Binding affinity to carbonic anhydrase II (unknown origin) fragment assessed as rate of protein modification by measuring inactivation rate constant (Kinact)
[3] = GSH reactivity in PBS buffer at pH 8 assessed as second-order reaction rate constants upto 200 uM by DTNB assay; format: ADME; conditions: pH 8, 200 µM
[4] = GSH reactivity in PBS buffer at pH 7.4 assessed as half life; format: ADME
[5] = Chemical stability of the compound in pH 7.4 buffer assessed as half life; format: physicochemical
[6] = Reactivity of SuTEx assessed as aryl-AG modifications by measuring half life by HLPC analysis; format: physicochemical
[7] = biological target: Replicase polyprotein 1ab (Severe acute respiratory syndrome coronavirus 2, UniProt P0DTD1); assay: Binding affinity to SARS-CoV-2 cysteine protease-Mpro assessed as inhibition constant
[8] = biological target: Replicase polyprotein 1ab (Severe acute respiratory syndrome coronavirus 2) (UniProt P0DTD1); assay: Binding affinity to SARS-CoV-2 cysteine protease-Mpro assessed as inactivation rate constant (Kinact)
[9] = Reactivity of SuTEx assessed as aryl-LG modifications by measuring half life by HLPC analysis; format: physicochemical
[10] = biological target: T2, Chromobox protein homolog 8 (Homo sapiens) (UniProt Q9HC52); assay: Binding affinity to CBX8 (unknown origin) assessed as rate constant of covalent modification (Kinact)
T2 sequence (whole entry): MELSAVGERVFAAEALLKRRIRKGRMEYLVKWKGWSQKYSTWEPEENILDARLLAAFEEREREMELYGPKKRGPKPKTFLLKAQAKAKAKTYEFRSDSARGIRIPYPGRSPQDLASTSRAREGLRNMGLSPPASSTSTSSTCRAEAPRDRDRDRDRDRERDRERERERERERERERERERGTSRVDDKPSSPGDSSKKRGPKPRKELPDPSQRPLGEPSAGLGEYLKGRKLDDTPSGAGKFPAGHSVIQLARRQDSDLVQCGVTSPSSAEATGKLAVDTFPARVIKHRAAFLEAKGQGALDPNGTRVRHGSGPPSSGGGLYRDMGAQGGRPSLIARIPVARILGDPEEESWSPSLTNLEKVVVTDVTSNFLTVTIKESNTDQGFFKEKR

[11] = GSH reactivity in PBS buffer at pH 8 at 14 degC assessed as half life upto 200 uM; format: ADME
[12] = biological target: T3, Tyrosine-protein kinase BTK (Homo sapiens, UniProt Q06187)
T3 sequence (Q06187 whole entry): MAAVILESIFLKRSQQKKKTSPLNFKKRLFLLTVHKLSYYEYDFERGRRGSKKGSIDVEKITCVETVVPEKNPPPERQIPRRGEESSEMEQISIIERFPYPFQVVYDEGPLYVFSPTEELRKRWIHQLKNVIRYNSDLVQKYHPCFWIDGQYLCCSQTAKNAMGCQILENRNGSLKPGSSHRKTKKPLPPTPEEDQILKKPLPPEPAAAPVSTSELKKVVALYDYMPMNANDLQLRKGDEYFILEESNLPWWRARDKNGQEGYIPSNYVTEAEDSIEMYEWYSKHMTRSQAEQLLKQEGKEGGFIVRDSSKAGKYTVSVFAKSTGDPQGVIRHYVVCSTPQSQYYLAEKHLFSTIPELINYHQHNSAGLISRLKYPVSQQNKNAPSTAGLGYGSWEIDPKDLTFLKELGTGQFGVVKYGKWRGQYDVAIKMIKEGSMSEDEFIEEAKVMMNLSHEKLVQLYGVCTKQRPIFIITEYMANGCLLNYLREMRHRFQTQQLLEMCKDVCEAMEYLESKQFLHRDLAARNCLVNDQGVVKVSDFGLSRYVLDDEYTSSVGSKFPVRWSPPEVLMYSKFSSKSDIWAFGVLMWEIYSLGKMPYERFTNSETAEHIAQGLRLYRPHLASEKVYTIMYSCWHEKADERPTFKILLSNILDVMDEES
Description: Binding affinity to BTK (unknown origin) assessed as inactivation rate constant (Kinact)

[13] = Thiol reactivity of compound assessed as (Kinact/Ki) rate constant ratio; format: ADME
[14] = biological target: T3, Tyrosine-protein kinase BTK; assay: Binding affinity to BTK (unknown origin) assessed as inhibition constant
[15] = biological target: E3 ubiquitin-protein ligase Mdm2 (Homo sapiens) (UniProt Q00987); assay: Binding affinity to human HDM2 assessed as rate constant of covalent modification (Kinact)
Sequence of E3 ubiquitin-protein ligase Mdm2 (Homo sapiens) (Q00987 whole entry, looked up): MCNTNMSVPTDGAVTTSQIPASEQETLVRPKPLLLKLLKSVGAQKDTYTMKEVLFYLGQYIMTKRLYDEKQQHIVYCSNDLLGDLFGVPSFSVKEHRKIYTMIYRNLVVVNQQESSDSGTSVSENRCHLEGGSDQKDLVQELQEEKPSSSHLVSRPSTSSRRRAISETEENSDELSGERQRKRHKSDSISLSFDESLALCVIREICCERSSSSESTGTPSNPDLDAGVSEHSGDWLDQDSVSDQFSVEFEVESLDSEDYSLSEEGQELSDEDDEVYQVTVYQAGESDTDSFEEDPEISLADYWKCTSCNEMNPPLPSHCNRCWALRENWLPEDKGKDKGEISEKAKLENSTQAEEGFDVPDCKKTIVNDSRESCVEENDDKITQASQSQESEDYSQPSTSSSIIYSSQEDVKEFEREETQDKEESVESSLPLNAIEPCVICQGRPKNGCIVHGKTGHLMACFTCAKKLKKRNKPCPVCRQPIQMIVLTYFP

[16] = biological target: E3 ubiquitin-protein ligase Mdm2 (Homo sapiens) (UniProt Q00987); assay: Binding affinity to human HDM2 assessed as second-order rate constant (Kinact/Kd) ratio
[17] = biological target: Tyrosine-protein kinase ABL1 (Homo sapiens, UniProt P00519); assay: Inhibition of wild type N-terminal His tagged ABL kinase (unknown origin) using fluorescence-labelled substrate by off-chip mobility shift assay
Sequence of Tyrosine-protein kinase ABL1 (P00519 whole entry): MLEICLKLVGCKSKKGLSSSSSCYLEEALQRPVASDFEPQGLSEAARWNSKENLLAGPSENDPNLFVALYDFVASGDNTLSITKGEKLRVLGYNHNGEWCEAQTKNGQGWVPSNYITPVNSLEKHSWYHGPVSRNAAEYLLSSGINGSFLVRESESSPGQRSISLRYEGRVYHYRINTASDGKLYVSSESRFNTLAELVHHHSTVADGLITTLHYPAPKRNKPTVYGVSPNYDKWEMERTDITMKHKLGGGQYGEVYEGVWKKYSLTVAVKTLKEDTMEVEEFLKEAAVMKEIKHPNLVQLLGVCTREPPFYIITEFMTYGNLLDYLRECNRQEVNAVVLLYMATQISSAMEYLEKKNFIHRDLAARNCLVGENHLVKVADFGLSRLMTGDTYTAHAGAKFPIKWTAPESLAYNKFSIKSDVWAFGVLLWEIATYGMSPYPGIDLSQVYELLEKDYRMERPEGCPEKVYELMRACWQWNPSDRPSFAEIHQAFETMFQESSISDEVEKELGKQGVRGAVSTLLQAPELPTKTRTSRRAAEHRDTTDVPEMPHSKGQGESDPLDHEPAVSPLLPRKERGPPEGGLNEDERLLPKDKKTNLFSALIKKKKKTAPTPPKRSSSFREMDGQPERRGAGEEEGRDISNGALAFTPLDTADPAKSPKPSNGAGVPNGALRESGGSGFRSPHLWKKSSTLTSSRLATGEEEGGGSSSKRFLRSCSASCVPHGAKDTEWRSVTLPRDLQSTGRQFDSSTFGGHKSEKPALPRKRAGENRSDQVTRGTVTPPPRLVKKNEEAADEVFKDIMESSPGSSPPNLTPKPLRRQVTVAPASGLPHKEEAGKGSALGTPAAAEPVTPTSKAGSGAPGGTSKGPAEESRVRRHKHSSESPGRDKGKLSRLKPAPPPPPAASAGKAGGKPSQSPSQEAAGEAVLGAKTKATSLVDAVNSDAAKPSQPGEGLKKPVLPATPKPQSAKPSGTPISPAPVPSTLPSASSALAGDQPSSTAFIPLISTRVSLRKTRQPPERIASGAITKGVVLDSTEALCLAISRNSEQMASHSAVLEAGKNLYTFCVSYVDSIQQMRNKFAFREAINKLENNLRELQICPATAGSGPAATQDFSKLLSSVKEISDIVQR

[18] = Reactivity rate at cyclic sulfonamide assessed as rate constant by CSA sulfenic-acid model; format: physicochemical
Homo sapiens [19] = species on record: Homo sapiens; assay: Binding affinity to wild type Hsp90 (unknown origin) assessed as rate of modification half life
Homo sapiens [20] = species on record: Homo sapiens; assay: Inhibition of wild type Hsp90 (unknown origin) assessed as inactivation rate constant (Kinact)

CC(NS(=O)(=O)c1cccc(S(=O)(=O)F)c1)c1cccc(S(N)(=O)=O)c1 (configuration not stated)
Ki (Carbonic anhydrase 2 [1]): 12 µM | Kinact (Carbonic anhydrase 2 [2]): 3.9 10^-5/s

Cc1ccc(S(=O)(=O)OCC(=O)NCc2ccccc2)cc1
K [3]: 0.161 M⁻¹ s⁻¹

Nc1ncnc2c1ncn2[C@@H]1O[C@H](CN(CC[C@H](N)C(=O)O)S(=O)(=O)c2ccc(F)c([N+](=O)[O-])c2)[C@@H](O)[C@H]1O
half-life [4]: < 2 min

NS(=O)(=O)c1ccc(CCNS(=O)(=O)c2ccc(S(=O)(=O)F)cc2)cc1
Ki (Carbonic anhydrase 2 [1]): < 5 µM | Kinact (Carbonic anhydrase 2 [2]): 2.1 10^-5/s

O=C(CCl)NCc1ccccc1
K [3]: 0.08 M⁻¹ s⁻¹

CC#CC1=Nc2ccccc2C(C)(C)N1
half-life [5]: > 6.94 days | half-life [4]: 1.5 min

CC(NC(=O)c1ccc(S(=O)(=O)F)cc1)c1cccc(S(N)(=O)=O)c1 (configuration not stated)
Ki (Carbonic anhydrase 2 [1]): 33 µM | Kinact (Carbonic anhydrase 2 [2]): 0.45 10^-5/s

CN(C(=O)C12CC1C2)c1ccccc1 (configuration not stated)
half-life [4]: 1960 min

NS(=O)(=O)c1cccc(CNC(=O)c2cccc(S(=O)(=O)F)c2)c1
Ki (Carbonic anhydrase 2 [1]): < 5 µM | Kinact (Carbonic anhydrase 2 [2]): 21 10^-5/s

NC(=O)C(Br)Br
half-life [4]: < 100 min

C#CCOCCOCCOc1cccc(N2CCN(C(=O)CF)CC2)c1
half-life [4]: > 10000 min

COc1ccc(-c2ncn(S(=O)(=O)c3ccc(OC)cc3)n2)cc1
half-life [6]: 183 min

O=C(NCCc1cccc(F)c1)[C@H](c1cncnc1)N(C(=O)[C@H](F)Cl)c1ccc(S(F)(F)(F)(F)F)cc1
Ki [7]: 64.7 µM | Kinact [8]: 4.3 10^-3/s

O=C(COS(=O)(=O)Nc1ccc(Br)cc1)NCc1ccccc1
K [3]: 0.003 M⁻¹ s⁻¹

O=S(=O)(c1ccc(F)cc1)n1cnc(-c2ccc(C(F)(F)F)cc2)n1
half-life [9]: 3.2 min | K [10]: 2.9 10^-3/M/s

C#CCOCCOCCOc1cccc(N2CCN(C(=O)C(F)(F)Br)CC2)c1
half-life [4]: 2000 min

CNS(=O)(=O)OCC(=O)NCc1ccccc1
K [3]: 0.029 M⁻¹ s⁻¹ | half-life at up to 200 µM [11]: ~300 min

O=C(NCCc1cccc(F)c1)[C@@H](c1cncnc1)N(C(=O)[C@@H](F)Cl)c1ccc(S(F)(F)(F)(F)F)cc1
Ki [7]: 53.6 µM | Kin [8]: 1.1 10^-3/s

CC(C)(C)OC(=O)/C=C/C(=O)N1CCC[C@@H](n2nc(-c3ccc(Oc4ccccc4)cc3)c3c(N)ncnc32)C1
Kinact [12]: 7.62 10^-3/s | kinact/KI [13]: 35000 M⁻¹ s⁻¹ | Ki [14]: 221 nM

NS(=O)(=O)c1ccc(CCNC(=O)c2cccc(S(=O)(=O)F)c2)cc1
Ki (Carbonic anhydrase 2 [1]): < 5 µM | Kinact (Carbonic anhydrase 2 [2]): 0.51 10^-5/s

O=C(NCCc1cccc(F)c1)[C@@H](c1cncnc1)N(C(=O)[C@H](F)Cl)c1ccc(S(F)(F)(F)(F)F)cc1
Ki [7]: 1.34 µM | Kinact [8]: 5.6 10^-3/s

Nc1ncnc2c1ncn2[C@@H]1O[C@H](CN(CC[C@H](N)C(=O)O)S(=O)(=O)c2ccc(Cl)c([N+](=O)[O-])c2)[C@@H](O)[C@H]1O
half-life [4]: < 2 min

O=S(=O)(c1ccc(F)cc1)n1cnc(-c2ccccc2)n1
half-life [9]: 6.5 min | Kinact [15]: 4.8 10^-4/s | Ratio [16]: 8.4 10^2/M/s

CCCSc1nc2sc3c(c2c(=O)n1CC)CCc1ccccc1-3
half-life [4]: 41 min

COc1cc(S(=O)(=O)F)ccc1-c1c[nH]c2ncc(-c3cncc(C(=O)N(C)C)c3)cc12
IC50 [17]: 73 nM

NC(=O)C(Cl)Br (configuration not stated)
half-life [4]: < 100 min

COc1cc(OC)cc(C(=O)C23CC2C3)c1 (configuration not stated)
half-life [4]: 1960 min

C#CCCCN1c2ccccc2C(=O)CS1(=O)=O
K [18]: 1700 M⁻¹ s⁻¹

Nc1ncnc2c1nc(Sc1cc3c(cc1I)OCO3)n2C[C@H]1CCCN(Cc2cccc(S(=O)(=O)F)c2)C1
T1/2 (Homo sapiens [19]): 0.0833 h | Kinact (Homo sapiens [20]): 2.17 10^-3/s

COc1ccc(-c2ncn(S(=O)(=O)c3ccc(-c4ccccc4)cc3)n2)cc1
half-life [6]: 17.3 min

C#CCCC(=O)C(SC[C@H](NC(=O)OCc1ccccc1)C(=O)N[C@H](C(=O)OC)C(C)C)[P+](c1ccccc1)(c1ccccc1)c1ccccc1 (some centres not stated)
K [18]: 15000 M⁻¹ s⁻¹

COc1ccc(-c2ncn(S(=O)(=O)c3cccnc3)n2)cc1
half-life [6]: 1.6 min

Nc1ncnc2c1nc(Sc1cc3c(cc1I)OCO3)n2C[C@@H]1CCCN(Cc2cccc(S(=O)(=O)F)c2)C1
T1/2 (Homo sapiens [19]): 3.33 h | Kinact (Homo sapiens [20]): 6.67 10^-5/s

NS(=O)(=O)c1ccc(CCNC(=O)Cc2ccc(S(=O)(=O)F)cc2)cc1
Ki (Carbonic anhydrase 2 [1]): < 5 µM | Kinact (Carbonic anhydrase 2 [2]): 0.36 10^-5/s
